Measured values taken from ChEMBL document CHEMBL4665712, “Phosphonium-ammonium-based di-cationic ionic liquids as antibacterial over the ESKAPE group” (Bioorg Med Chem Lett, 2020).

Columns and labels:
Acinetobacter baumannii = experiment: Antibacterial activity against Acinetobacter baumannii ATCC 19606; type: functional; settings: ATCC 19606 = CIP 70.34 = JCM 6841
Staphylococcus aureus = experiment: Antibacterial activity against Staphylococcus aureus CIP 7625; type: functional
Klebsiella pneumoniae = experiment: Antibacterial activity against Klebsiella pneumoniae CIP 82.91; type: functional
Escherichia coli = experiment: Antibacterial activity against Escherichia coli CIP 54.8; type: functional
Pseudomonas aeruginosa = experiment: Antibacterial activity against Pseudomonas aeruginosa 100720; type: functional
Enterococcus faecium = experiment: Antibacterial activity against Enterococcus faecium 20477; type: functional
HepG2 = experiment: Cytotoxicity against human HepG2 cells assessed as reduction in cell viability; type: cell-based

| Structure (SMILES) | MIC (Acinetobacter baumannii) [µg/mL] | MIC (Staphylococcus aureus) [µg/mL] | MIC (Klebsiella pneumoniae) [µg/mL] | MIC (Escherichia coli) [µg/mL] | MIC (Pseudomonas aeruginosa) [µg/mL] | MIC (Enterococcus faecium) [µg/mL] | Activity (HepG2) |
| --- | --- | --- | --- | --- | --- | --- | --- |
| CCCCCC[P+](CCCCCC)(CCCCCC)CCCCCC[P+](CCCCCC)(CCCCCC)CCCCCC.[Br-].[Br-] | 16 | 0.5 | 8 | 4 | 8 | 0.5 | – |
| CCCC[P+](CCCC)(CCCC)CCCCCCCCCC[P+](CCCC)(CCCC)CCCC.[Br-].[Br-] | > 64 | 16 | > 64 | > 64 | > 64 | > 64 | Toxic |
| CCCCCC[N+](CCCCCC)(CCCCCC)CCCCCC[P+](CCCC)(CCCC)CCCC.[Br-].[Br-] | > 64 | 32 | > 64 | > 64 | > 64 | 64 | – |
| CCCCCCCC[P+](CCCCCCCC)(CCCCCCCC)CCCCCCCCCC[P+](CCCCCCCC)(CCCCCCCC)CCCCCCCC.[Br-].[Br-] | > 64 | 16 | > 64 | > 64 | > 64 | 32 | Toxic |
| CCCCCC[P+](CCCCCC)(CCCCCC)CCCCCC[P+](CCCC)(CCCC)CCCC.[Br-].[Br-] | > 64 | 2 | > 64 | > 64 | > 64 | 8 | – |
| CCCCCC[P+](CCCCCC)(CCCCCC)CCCCCCCCCC[P+](CCCC)(CCCC)CCCC.[Br-].[Br-] | 8 | 0.5 | 16 | 4 | 64 | 2 | Toxic |
| CCCCCC[P+](CCCCCC)(CCCCCC)CCCCCCCCCC[P+](CCCCCC)(CCCCCC)CCCCCC.[I-].[I-] | 2 | 0.5 | 2 | 2 | 2 | 0.5 | – |
| CCCCCC[N+](CCCCCC)(CCCCCC)CCCCCCCCCC[P+](CCCC)(CCCC)CCCC.[Br-].[Br-] | > 64 | 1 | 64 | 16 | > 64 | 2 | – |
| CCCCCC[N+](CCCCCC)(CCCCCC)CCCCCC[N+](CCCCCC)(CCCCCC)CCCCCC.[Br-].[Br-] | > 64 | 1 | > 64 | 32 | > 64 | 1 | – |
| CCCCCC[N+](CCCCCC)(CCCCCC)CCCCCCCCCC[N+](CCCCCC)(CCCCCC)CCCCCC.[Br-].[Br-] | 16 | 0.5 | 4 | 2 | 8 | 0.5 | Toxic |
| CCCC[P+](CCCC)(CCCC)CCCCCC[P+](CCCC)(CCCC)CCCC.[Br-].[Br-] | > 64 | > 64 | > 64 | > 64 | > 64 | > 64 | – |
| CCCCCCCC[P+](CCCCCCCC)(CCCCCCCC)CCCCCC[P+](CCCCCC)(CCCCCC)CCCCCC.[Br-].[Br-] | 4 | 1 | 4 | 8 | 8 | 2 | – |
| CCCCCC[N+](CCCCCC)(CCCCCC)CCCCCCCCCC[P+](CCCCCC)(CCCCCC)CCCCCC.[Br-].[Br-] | 8 | 0.5 | 2 | 2 | 8 | 1 | Toxic |
| CCCCCC[P+](CCCCCC)(CCCCCC)CCCCCCCCCC[P+](CCCCCC)(CCCCCC)CCCCCC.[Br-].[Br-] | 4 | 0.5 | 4 | 2 | 4 | 1 | Toxic |
| CCCCCCCC[P+](CCCCCCCC)(CCCCCCCC)CCCCCC[P+](CCCCCCCC)(CCCCCCCC)CCCCCCCC.[Br-].[Br-] | 8 | 1 | 32 | 32 | > 64 | 2 | – |
| CCCCCC[P+](CCCCCC)(CCCCCC)CCCCCCCCCC[P+](CCCCCC)(CCCCCC)CCCCCC.[Cl-].[Cl-] | 2 | 0.5 | 2 | 2 | 4 | 0.5 | – |
